{"source": "ChEMBL document CHEMBL5247684", "about": "“Novel C-Linked Isoquinoline Amides as LRRK2 Inhibitors for Treating Parkinson's Disease” (ACS Med Chem Lett, 2023)", "molecular_target": "Leucine-rich repeat serine/threonine-protein kinase 2 (Homo sapiens, UniProt Q5S007, G2019S)", "sequence (Q5S007 whole entry G2019S, the tested form may be a part)": "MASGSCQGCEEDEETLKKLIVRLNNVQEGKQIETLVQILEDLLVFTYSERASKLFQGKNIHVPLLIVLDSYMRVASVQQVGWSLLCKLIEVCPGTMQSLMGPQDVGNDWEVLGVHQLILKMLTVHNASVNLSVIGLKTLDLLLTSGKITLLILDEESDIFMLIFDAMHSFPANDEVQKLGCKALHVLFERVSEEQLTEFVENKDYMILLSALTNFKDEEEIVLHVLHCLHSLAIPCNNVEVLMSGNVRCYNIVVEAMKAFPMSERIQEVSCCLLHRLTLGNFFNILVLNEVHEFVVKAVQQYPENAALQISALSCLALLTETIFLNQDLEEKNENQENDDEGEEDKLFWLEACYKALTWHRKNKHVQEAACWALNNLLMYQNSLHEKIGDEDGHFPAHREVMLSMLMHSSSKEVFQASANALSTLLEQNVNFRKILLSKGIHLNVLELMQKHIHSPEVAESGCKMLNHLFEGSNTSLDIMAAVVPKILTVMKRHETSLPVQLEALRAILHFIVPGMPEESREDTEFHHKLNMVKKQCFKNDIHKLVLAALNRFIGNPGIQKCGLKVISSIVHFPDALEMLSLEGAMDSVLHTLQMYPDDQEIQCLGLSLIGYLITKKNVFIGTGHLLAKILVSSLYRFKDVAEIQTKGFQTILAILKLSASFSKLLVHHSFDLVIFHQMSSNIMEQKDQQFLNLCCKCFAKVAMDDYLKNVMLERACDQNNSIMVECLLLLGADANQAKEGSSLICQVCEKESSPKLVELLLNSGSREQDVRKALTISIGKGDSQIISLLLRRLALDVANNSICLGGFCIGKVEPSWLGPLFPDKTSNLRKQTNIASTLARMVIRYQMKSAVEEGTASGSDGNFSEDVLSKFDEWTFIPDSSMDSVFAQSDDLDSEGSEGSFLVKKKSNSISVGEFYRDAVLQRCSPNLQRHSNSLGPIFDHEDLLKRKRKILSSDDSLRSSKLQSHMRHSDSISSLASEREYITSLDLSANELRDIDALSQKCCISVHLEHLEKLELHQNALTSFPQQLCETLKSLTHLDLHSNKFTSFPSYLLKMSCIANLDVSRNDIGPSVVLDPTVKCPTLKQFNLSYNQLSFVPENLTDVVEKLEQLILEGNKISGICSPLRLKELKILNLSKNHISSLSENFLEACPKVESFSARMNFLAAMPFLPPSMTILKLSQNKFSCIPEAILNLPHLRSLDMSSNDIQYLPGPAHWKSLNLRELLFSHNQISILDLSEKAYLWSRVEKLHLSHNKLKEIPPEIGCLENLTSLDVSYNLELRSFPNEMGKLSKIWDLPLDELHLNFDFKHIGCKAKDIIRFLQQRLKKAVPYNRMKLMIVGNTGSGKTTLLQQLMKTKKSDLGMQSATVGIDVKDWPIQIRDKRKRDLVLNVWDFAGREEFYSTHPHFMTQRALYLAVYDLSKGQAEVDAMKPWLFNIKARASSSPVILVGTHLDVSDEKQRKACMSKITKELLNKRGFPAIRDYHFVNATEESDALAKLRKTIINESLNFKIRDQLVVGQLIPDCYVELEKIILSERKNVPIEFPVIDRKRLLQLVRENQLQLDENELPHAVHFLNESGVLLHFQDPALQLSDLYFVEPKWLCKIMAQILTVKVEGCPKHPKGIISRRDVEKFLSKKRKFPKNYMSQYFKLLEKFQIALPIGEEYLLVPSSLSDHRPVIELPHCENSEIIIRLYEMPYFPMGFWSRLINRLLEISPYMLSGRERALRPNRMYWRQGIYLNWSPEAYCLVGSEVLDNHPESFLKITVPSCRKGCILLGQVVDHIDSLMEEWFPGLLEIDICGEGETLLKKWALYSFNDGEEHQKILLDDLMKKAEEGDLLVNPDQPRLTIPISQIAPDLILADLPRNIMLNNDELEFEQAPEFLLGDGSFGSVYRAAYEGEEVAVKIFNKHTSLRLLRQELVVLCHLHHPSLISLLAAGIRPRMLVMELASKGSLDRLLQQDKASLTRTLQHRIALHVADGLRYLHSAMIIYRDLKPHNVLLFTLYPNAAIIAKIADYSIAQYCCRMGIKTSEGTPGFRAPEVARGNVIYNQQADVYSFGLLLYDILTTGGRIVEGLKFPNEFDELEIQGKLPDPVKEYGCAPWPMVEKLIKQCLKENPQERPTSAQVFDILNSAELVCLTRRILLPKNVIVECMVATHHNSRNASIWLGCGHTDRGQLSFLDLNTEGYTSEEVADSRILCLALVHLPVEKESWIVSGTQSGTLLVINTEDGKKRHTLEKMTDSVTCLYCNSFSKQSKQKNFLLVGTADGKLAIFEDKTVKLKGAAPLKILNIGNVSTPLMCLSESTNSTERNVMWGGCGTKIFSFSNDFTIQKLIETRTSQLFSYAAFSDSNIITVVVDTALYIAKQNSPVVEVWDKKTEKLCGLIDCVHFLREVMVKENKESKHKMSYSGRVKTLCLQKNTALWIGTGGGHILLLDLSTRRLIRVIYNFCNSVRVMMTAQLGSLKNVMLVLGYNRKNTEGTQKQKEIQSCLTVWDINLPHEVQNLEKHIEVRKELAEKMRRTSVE", "test": "Inhibition of GST20-tagged truncated human LRRK2 G2019S mutant using fluorescein labeled LRRKtide peptide as substrate by Lantha screen assay", "note": "pIC50: −log10 of the molar value.", "data": [{"smiles": "C[C@@]1(N2CC[C@@H](c3cc4cc(NC(=O)C5CC56CC6)ncc4cc3Cl)[C@H](F)C2)COC[C@@H]1O", "note": "(stereo partly specified)", "values": [{"measurement": "pIC50", "result": 10.09}]}]}
